Measurements reported in ChEMBL document CHEMBL1142522, “Hedgehog/GLI-mediated transcriptional inhibitors from Zizyphus cambodiana” (Bioorg Med Chem, 2008).
Calls of active or inactive are those of the source. The calls are words filed in the database; no cut-off is given here.

Legend:
[1] = target: T1, Zinc finger protein GLI1 (Homo sapiens) (UniProt P08151); assay: Inhibition of GLI1-mediated transcriptional activity in human HaCaT cells by luciferase based reporter gene assay; format: cell-based
T1 sequence (whole entry): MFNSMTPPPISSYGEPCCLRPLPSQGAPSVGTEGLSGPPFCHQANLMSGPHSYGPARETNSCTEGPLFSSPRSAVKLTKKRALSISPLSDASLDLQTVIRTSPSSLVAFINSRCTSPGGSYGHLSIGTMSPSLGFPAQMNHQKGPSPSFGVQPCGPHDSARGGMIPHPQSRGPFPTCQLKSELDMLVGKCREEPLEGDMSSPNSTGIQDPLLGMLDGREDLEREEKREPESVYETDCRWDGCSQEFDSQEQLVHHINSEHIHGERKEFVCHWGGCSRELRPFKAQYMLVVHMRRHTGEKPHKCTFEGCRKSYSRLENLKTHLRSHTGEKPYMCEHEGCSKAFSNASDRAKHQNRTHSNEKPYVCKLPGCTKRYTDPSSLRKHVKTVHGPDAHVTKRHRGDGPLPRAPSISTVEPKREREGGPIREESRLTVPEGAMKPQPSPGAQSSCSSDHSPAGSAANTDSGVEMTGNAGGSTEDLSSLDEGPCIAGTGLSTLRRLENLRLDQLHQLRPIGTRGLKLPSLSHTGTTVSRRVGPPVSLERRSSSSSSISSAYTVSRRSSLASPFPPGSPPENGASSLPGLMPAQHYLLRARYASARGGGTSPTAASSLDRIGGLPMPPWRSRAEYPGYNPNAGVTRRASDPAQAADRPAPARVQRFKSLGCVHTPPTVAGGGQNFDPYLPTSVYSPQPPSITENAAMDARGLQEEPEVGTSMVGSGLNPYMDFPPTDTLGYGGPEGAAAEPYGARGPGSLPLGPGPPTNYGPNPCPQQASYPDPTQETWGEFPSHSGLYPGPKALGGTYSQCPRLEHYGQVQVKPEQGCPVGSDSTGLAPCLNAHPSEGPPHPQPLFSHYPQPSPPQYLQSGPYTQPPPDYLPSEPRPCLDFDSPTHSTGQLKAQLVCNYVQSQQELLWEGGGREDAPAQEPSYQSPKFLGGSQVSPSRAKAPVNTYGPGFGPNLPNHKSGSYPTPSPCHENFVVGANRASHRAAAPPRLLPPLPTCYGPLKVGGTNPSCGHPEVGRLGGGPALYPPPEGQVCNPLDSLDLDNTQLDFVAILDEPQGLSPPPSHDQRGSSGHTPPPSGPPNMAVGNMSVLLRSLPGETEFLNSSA

[2] = Cytotoxicity against mouse C3H10T1/2 cells after 24 hrs by fluorometric microculture cytotoxicity assay; format: cell-based; details: C3H 10T1/2, 24 h
PANC-1 [3] = assay: Cytotoxicity against human PANC1 after 24 hrs by fluorometric microculture cytotoxicity assay; format: functional, cell-based; details: PANC-1, 24 h
DU-145 [4] = assay: Cytotoxicity against human DU145 cells after 24 hrs by fluorometric microculture cytotoxicity assay; format: functional, cell-based; details: DU-145, 24 h
[5] = target: T1, Zinc finger protein GLI1 (Homo sapiens); assay: Effect on Hh/GLI-mediated transcription in human PANC1 assessed as decrease in BCL2 protein expression by Western blot; format: cell-based; details: PANC-1
[6] = target: T1, Zinc finger protein GLI1 (Homo sapiens); assay: Effect on Hh/GLI-mediated transcription in human PANC1 assessed as decrease in […] protein expression by Western blot; format: cell-based; details: PANC-1
[7] = target: T1, Zinc finger protein GLI1 (Homo sapiens); assay: Effect on Hh/GLI-mediated transcription in human HaCaT cells assessed as reduction of BCL2 protein expression by Western blot; format: cell-based
[8] = target: T1, Zinc finger protein GLI1 (Homo sapiens); assay: Effect on Hh/GLI-mediated transcription in human HaCaT cells assessed as reduction of PTCH protein expression by Western blot; format: cell-based
HaCaT = assay: Decrease in GLI1 protein expression in human HaCaT cells by Western blot; format: functional, cell-based
DU-145 [9] = assay: Cytotoxicity against human DU145 cells at 100 uM after 24 hrs by fluorometric microculture cytotoxicity assay; format: functional, cell-based
PANC-1 [10] = assay: Cytotoxicity against human PANC1 at 100 uM after 24 hrs by fluorometric microculture cytotoxicity assay; format: functional, cell-based
[11] = target: T1, Zinc finger protein GLI1 (Homo sapiens); assay: Inhibition of GLI-mediated […] mRNA production in human PANC1 cells by RT-PCR analysis; format: cell-based; details: PANC-1

Row | SMILES | Activity [1] | IC50 [2] [µM] | IC50 (PANC-1 [3]) [µM] | IC50 (DU-145 [4]) [µM] | Activity [5] | Activity [6] | Activity [7] | Activity [8] | Activity (HaCaT) | Activity (DU-145 [9]) | Activity (PANC-1 [10]) | Activity [11]
1 | C=C(C)[C@@H]1CC[C@]2(C(=O)O)CC[C@]3(C)[C@H](CC[C@@H]4[C@@]5(C)C[C@@H](O)[C@H](O)C(C)(C)[C@@H]5CC[C@]43C)[C@@H]12 [ALPHITOLIC ACID] | Dose-dependent effect | 145 | 41 | 70 | – | – | – | – | – | – | – | –
2 | C=C(C)[C@@H]1CC[C@]2(C(=O)O)CC[C@]3(C)[C@H](CC[C@@H]4[C@@]5(C)CC[C@H](O)C(C)(C)[C@@H]5CC[C@]43C)[C@@H]12 [BETULINIC ACID] | Dose-dependent effect | 82 | 44 | 37 | Active | Active | Active | Active | Active | – | – | –
3 | C=C(C)[C@@H]1CC[C@]2(C(=O)O)CC[C@]3(C)[C@H](CC[C@@H]4[C@@]5(C)[C@@H](C(=O)O)[C@H](O)C(C)(C)[C@@H]5CC[C@]43C)[C@@H]12 [CEANOTHIC ACID] | – | > 200 | 195 | > 200 | – | – | – | – | – | inactive | inactive | –
4 | C=C(C)[C@@H]1CC[C@]2(C(=O)O)CC[C@]3(C)[C@H](CC[C@@H]4[C@@]5(C)[C@H](C=O)[C@@H](O)C(C)(C)[C@@H]5CC[C@]43C)[C@@H]12 [COLUBRINIC ACID] | Dose-dependent effect | 167 | 43 | 78 | Active | Active | Dose-dependent effect | Dose-dependent effect | – | – | – | Dose-dependent effect
5 | C=C(C)[C@@H]1CC[C@]2(C(=O)O)CC[C@]3(C)[C@H](CC[C@@H]4[C@@]5(C)[C@H](CO)[C@@H](O)C(C)(C)[C@@H]5CC[C@]43C)[C@@H]12 [CEANOTHANOLIC ACID] | – | > 200 | > 200 | > 200 | – | – | – | – | – | inactive | inactive | –
